Assay results taken from US7964624B1, “Inhibitors of serine proteases” (priority 2005, dated 2011).

Columns and labels:
[1] = target: T1, full-length hepatitis C viral protein NS3•4A (Hepatitis C virus genotype 1a, UniProt P27958); experiment: biochemical; parameters: species or system HCV sub-type strain 1a; settings: Enzyme Assay 2 (HCV NS3 Peptide Cleavage Assay) activity, apparent Ki class
T1 construct: hexa-histidine (N); made in house; host or cells: Sf9 insect cells (baculovirus, pVL1392)

[2] = target: T2, HCV NS3 protease domain (Hepatitis C virus genotype 1b, UniProt Q9WMX2); experiment: biochemical; settings: Enzyme Assay 1 (HCV NS3 Protease Domain Peptide Cleavage Assay) activity, apparent Ki class
T2 construct: The first 181 amino acids of NS3 (residues 1027-1207 of the viral polyprotein); hexa-histidine (C); made in house; host or cells: E. coli BL21/DE3 pLysS

SMILES	Ki [1]	Ki [2]
CCC[C@H](NC(=O)[C@@H]1C[C@]2(CC(c3cccc(Cl)c3)=NO2)CN1C(=O)[C@@H](NC(=O)CC1CCCCC1)C(C)(C)C)C(=O)C(=O)NCc1ccccc1 [Compound 77]	< 100 nM	100 to 500 nM
CCC[C@H](NC(=O)[C@@H]1C[C@]2(CC(c3cccc(Cl)c3)=NO2)CN1C(=O)[C@@H](NC(=O)C1CCCCC1)C(C)(C)C)C(=O)C(=O)NC1CC1 [Compound 93]	< 100 nM	100 to 500 nM
CCC[C@H](NC(=O)[C@@H]1C[C@]2(CC(c3cccc(Cl)c3)=NO2)CN1C(=O)[C@@H](NC(=O)CC1CCCCC1)C(C)(C)C)C(=O)C(=O)NC1Cc2ccccc2C1 [Compound 6]	> 500 nM	> 500 nM
CCC[C@H](NC(=O)[C@@H]1C[C@]2(CC(c3cccc(Cl)c3)=NO2)CN1C(=O)[C@@H](NC(=O)CC1CCCCC1)C(C)(C)C)C(=O)C(=O)N[C@H](C)CC [Compound 452]	100 to 500 nM	> 500 nM
CCC[C@H](NC(=O)[C@@H]1C[C@]2(CC(c3cccc(Cl)c3)=NO2)CN1C(=O)[C@@H](NC(=O)CC12CCCCC1C2)C(C)(C)C)C(=O)C(=O)NC1CC1 (stereo partly shown) [Compound 19]	< 100 nM	100 to 500 nM
CCC[C@H](NC(=O)[C@@H]1C[C@]2(CC(c3cccc(Cl)c3)=NO2)CN1C(=O)[C@@H](NC(=O)CC1CCCCC1)C(C)(C)C)C(=O)C(=O)NC1CCCC1 [Compound 372]	100 to 500 nM	100 to 500 nM
CCC[C@H](NC(=O)[C@@H]1C[C@]2(CC(c3cccc(Cl)c3)=NO2)CN1C(=O)[C@@H](NC(=O)CC1CCCCC1)C(C)(C)C)C(=O)C(=O)NCc1csc(-c2ccccc2)n1 [Compound 176]	100 to 500 nM	100 to 500 nM
CC(C)(C)[C@H](NC(=O)CC1CCCCC1)C(=O)N1C[C@@]2(CC(c3cccc(Cl)c3)=NO2)C[C@H]1C(=O)N[C@@H](CC1CCC1)C(=O)C(=O)NC1CC1 [Compound 23]	100 to 500 nM	< 100 nM
CCC[C@H](NC(=O)[C@@H]1C[C@]2(CC(c3cc(C)c(OC)c(C)c3)=NO2)CN1C(=O)[C@@H](NC(=O)CC1CCCCC1)C(C)(C)C)C(=O)C(=O)NC1CC1 [Compound 362]	< 100 nM	100 to 500 nM
CCC[C@H](NC(=O)[C@@H]1C[C@]2(CC(c3cccc(Cl)c3)=NO2)CN1C(=O)[C@@H](NC(=O)CC1CCCCC1)C(C)(C)C)C(=O)C(=O)NC1CCC1 [Compound 401]	100 to 500 nM	100 to 500 nM
C=C[C@@H]1C[C@]1(NC(=O)[C@@H]1C[C@]2(CC(c3cccc(Cl)c3)=NO2)CN1C(=O)[C@@H](NC(=O)CC1CCOCC1)C(C)(C)C)C(=O)O [Compound 384]	> 500 nM	> 500 nM
CCC[C@H](NC(=O)[C@@H]1C[C@]2(CC(c3cccc(Cl)c3)=NO2)CN1C(=O)[C@@H](NC(=O)CC1CCCCC1)C(C)(C)C)C(=O)C(=O)NCC1(c2ccc(OC)cc2)CCOCC1 [Compound 91]	> 500 nM	> 500 nM
CCC[C@H](NC(=O)[C@@H]1C[C@]2(CC(c3cccc(Cl)c3)=NO2)CN1C(=O)C(NC(=O)CC1C[C@@H](C)O[C@H](C)C1)C(C)(C)C)C(=O)C(=O)NC1CC1 (stereo partly shown) [Compound 153]	100 to 500 nM	100 to 500 nM
CCC[C@H](NC(=O)[C@@H]1C[C@]2(CC(c3cccc(Cl)c3)=NO2)CN1C(=O)[C@@H](NC(=O)CC1CC2CCC1C2)C(C)(C)C)C(=O)C(=O)NC1CC1 (stereo partly shown) [Compound 467]	< 100 nM	100 to 500 nM
CCC[C@H](NC(=O)[C@@H]1C[C@]2(CC(c3cccc(Cl)c3)=NO2)CN1C(=O)[C@@H](NC(=O)[C@@H]1CCC(=O)N1Cc1cccs1)C(C)(C)C)C(=O)C(=O)NC1CC1 [Compound 30]	< 100 nM	100 to 500 nM
CCC[C@H](NC(=O)[C@@H]1C[C@]2(CC(c3cccc(Cl)c3)=NO2)CN1C(=O)[C@@H](NC(C)=O)C(C)(C)C)C(=O)C(=O)NC1CC1 [Compound 12]	< 100 nM	100 to 500 nM
CCC[C@H](NC(=O)[C@@H]1C[C@]2(CC(c3cccc(Cl)c3)=NO2)CN1C(=O)[C@@H](NC(=O)CC1CCCCC1)C(C)(C)C)C(=O)C(=O)NCCC1C(=O)Nc2ccccc21 (stereo partly shown) [Compound 458]	> 500 nM	> 500 nM
CCC[C@H](NC(=O)[C@@H]1C[C@]2(CC(c3cccc(Cl)c3)=NO2)CN1C(=O)[C@@H](NC(=O)CC1CCCCC1)C(C)(C)C)C(=O)C(=O)NC(c1ccccc1)c1ccccn1 (stereo partly shown) [Compound 120]	> 500 nM	> 500 nM
CCC[C@H](NC(=O)[C@@H]1C[C@]2(CC(c3cccc(Cl)c3)=NO2)CN1C(=O)[C@@H](NC(=O)[C@@H]1CCC(=O)N1Cc1cccc(Cl)c1)C(C)(C)C)C(=O)C(=O)NC1CC1 [Compound 377]	< 100 nM	100 to 500 nM
CCC[C@H](NC(=O)[C@@H]1C[C@]2(CC(c3cccc4cccnc34)=NO2)CN1C(=O)[C@@H](NC(=O)CC1CCCCC1)C(C)(C)C)C(=O)C(=O)NC1CC1 [Compound 42]	< 100 nM	100 to 500 nM
CCC[C@H](NC(=O)[C@@H]1C[C@]2(CC(c3cccc(Cl)c3)=NO2)CN1C(=O)[C@@H](NC(=O)CC1CCCCC1)C(C)(C)C)C(=O)C(=O)Nc1cccc(NS(C)(=O)=O)c1 [Compound 148]	> 500 nM	> 500 nM

SMILES	Ki [1]	Ki [2]
CCC[C@H](NC(=O)[C@@H]1C[C@]2(CC(c3cccc(Cl)c3)=NO2)CN1C(=O)[C@@H](NC(=O)CC1CCCCC1)C(C)(C)C)C(=O)C(=O)NCc1nc2ccccc2[nH]1 [Compound 567]	100 to 500 nM	> 500 nM
CCC[C@H](NC(=O)[C@@H]1C[C@]2(CC(c3cccc(Cl)c3)=NO2)CN1C(=O)[C@@H](NC(=O)CC1CCCCC1)C(C)(C)C)C(=O)C(=O)NCC1CC1 [Compound 265]	100 to 500 nM	> 500 nM
CCC[C@H](NC(=O)[C@@H]1C[C@]2(CC(c3cc(Cl)c(OC)cc3OC)=NO2)CN1C(=O)[C@@H](NC(=O)CC1CCCCC1)C(C)(C)C)C(=O)C(=O)NC1CC1 [Compound 307]	< 100 nM	100 to 500 nM
CCC[C@H](NC(=O)[C@@H]1C[C@]2(CC(c3cccc(Cl)c3)=NO2)CN1C(=O)[C@@H](NS(=O)(=O)c1ccc(Cl)cc1)C(C)CC)C(=O)C(=O)NC1CC1 (stereo partly shown) [Compound 416]	100 to 500 nM	> 500 nM
CCC[C@H](NC(=O)[C@@H]1C[C@]2(CC(c3cccc(Cl)c3)=NO2)CN1C(=O)C1=CC(c2cc(OC)ccc2OC)NC(=O)N1)C(=O)C(=O)NC1CC1 (stereo partly shown) [Compound 586]	> 500 nM	> 500 nM
CCC[C@H](NC(=O)[C@@H]1C[C@]2(CC(c3cccc(Cl)c3)=NO2)CN1C(=O)[C@@H](NC(=O)CC1CCCCC1)C(C)(C)C)C(=O)C(=O)N[C@@H](C)c1cccc(OC)c1 [Compound 255]	100 to 500 nM	100 to 500 nM
CCC[C@H](NC(=O)[C@@H]1C[C@]2(CC(c3cccc(Cl)c3)=NO2)CN1C(=O)[C@@H](NC(=O)CC1CCOC(C)(C)C1)C(C)(C)C)C(=O)C(=O)NC1CC1 (stereo partly shown) [Compound 121]	< 100 nM	100 to 500 nM
CC1(O)CCC(CC(=O)N[C@H](C(=O)N2C[C@@]3(CC(c4cccc(Cl)c4)=NO3)C[C@H]2C(=O)N[C@@H](CC2CC2)C(=O)C(N)=O)C(C)(C)C)CC1 (stereo partly shown) [Compound 5]	< 100 nM	< 100 nM
CCC[C@H](NC(=O)[C@@H]1C[C@]2(CC(c3cc(F)c(OCC)c(Cl)c3)=NO2)CN1C(=O)[C@@H](NC(=O)CC1CCCCC1)C(C)(C)C)C(=O)C(=O)NC1CC1 [Compound 136]	100 to 500 nM	100 to 500 nM
C=C[C@@H]1C[C@]1(NC(=O)[C@@H]1C[C@]2(CC(c3cccc(Cl)c3)=NO2)CN1C(=O)[C@@H](NC(=O)O[C@H]1CCOC1)C(C)(C)C)C(=O)O [Compound 269]	> 500 nM	> 500 nM
CCC[C@H](NC(=O)[C@@H]1C[C@]2(CC(c3cccc(Cl)c3)=NO2)CN1C(=O)[C@@H](NC(=O)CC1CCCCC1)C(C)(C)C)C(=O)C(=O)Nc1cc(OC)ccc1OC [Compound 84]	> 500 nM	> 500 nM
CCC[C@H](NC(=O)[C@@H]1C[C@]2(CC(c3cccc(Cl)c3)=NO2)CN1C(=O)[C@@H](NC(=O)CC1CCCCC1)C(C)(C)C)C(=O)C(=O)NC(C)C [Compound 275]	100 to 500 nM	100 to 500 nM
CCCC[C@H](NC(=O)CC1CCCCC1)C(=O)N1C[C@@]2(CC(c3cccc(Cl)c3)=NO2)C[C@H]1C(=O)N[C@@H](CCC)C(=O)C(=O)NC1CC1 [Compound 459]	100 to 500 nM	> 500 nM
CCC[C@H](NC(=O)[C@@H]1C[C@]2(CC(c3cccc(Cl)c3)=NO2)CN1C(=O)[C@@H](NC(=O)CC1C[C@@H](C)O[C@@H](C)C1)C(C)(C)C)C(=O)C(=O)NC1CC1 (stereo partly shown) [Compound 442]	< 100 nM	100 to 500 nM
CCC[C@H](NC(=O)[C@@H]1C[C@]2(CC(c3cccc(Cl)c3)=NO2)CN1C(=O)[C@@H](NC(=O)[C@@H]1CCCN1C(=O)c1ccccc1)C(C)(C)C)C(=O)C(=O)NC1CC1 [Compound 26]	< 100 nM	100 to 500 nM
CCC[C@H](NC(=O)[C@@H]1C[C@]2(CC(c3ccccc3)=NO2)CN1C(=O)[C@@H](NC(=O)CC1CCCCC1)C(C)(C)C)C(=O)C(=O)NC1CC1 [Compound 531]	100 to 500 nM	100 to 500 nM
CCC[C@H](NC(=O)[C@@H]1C[C@]2(CC(c3cccc(Cl)c3)=NO2)CN1C(=O)[C@@H](NC(=O)CC1CCC(C)CC1)C(C)(C)C)C(=O)C(=O)NC1CC1 (stereo partly shown) [Compound 361]	< 100 nM	100 to 500 nM
CCC[C@H](NC(=O)[C@@H]1C[C@]2(CC(c3cccc(Cl)c3)=NO2)CN1C(=O)[C@@H](NC(=O)CC1CCCCC1)C(C)(C)C)C(=O)C(=O)N1CC(F)(F)C1 [Compound 521]	< 100 nM	100 to 500 nM
CCC[C@H](NC(=O)[C@@H]1C[C@]2(CC(c3cccc(Cl)c3)=NO2)CN1C(=O)[C@@H](NC(=O)CC1CCCCC1)C(C)(C)C)C(=O)C(=O)Nc1cccc(C#N)c1 [Compound 588]	> 500 nM	> 500 nM
CCC[C@H](NC(=O)[C@@H]1C[C@]2(CC(c3cccc(Cl)c3)=NO2)CN1C(=O)[C@@H](NC(=O)CC1CCCCC1)C(C)(C)C)C(=O)C(=O)NCCc1ccc2c(c1)OCO2 [Compound 221]	100 to 500 nM	100 to 500 nM
